Tested on: Ehrlich Ascites-Tumorzellen
Test: Concentration-dependent growth inhibition of Ehrlich ascites tumour cells (antiproliferative effect)
Format: cell-based
Conditions: Wachstumshemmung, read-out: Hemmung (%); for inhibition at 3 µM: Konzentration 3 μmolar; for inhibition at 10 µM: Konzentration 10 μmolar; for inhibition at 30 µM: Konzentration 30 μmolar; for inhibition at 100 µM: Konzentration 100 μmolar
Source text: Zur Bestimmung der cytostatischen Wirkung wurde die antiproliferative Wirkung bei Ehrlich-Ascites Tumorzellen untersucht. Dabei zeigte sich, daß die erfindungsgemäßen Verbindungen ausgezeichnete cytostatische Wirkung aufweisen. Sie können daher allein oder in Mischung mit anderen Wirksubstanzen in Form üblicher galenischer Zubereitungen als Cytostatika oder Virustatika eingesetzt werden.
Konzentrationsabhängige Wachstumshemmung von Ehrlich Ascites-Tumorzellen.

| Compound | inhibition at 3 µM [%] | inhibition at 10 µM [%] | inhibition at 30 µM [%] | inhibition at 100 µM [%] |
| --- | --- | --- | --- | --- |
| CCCCCCCCCCCCCCCCOCC(COP(=O)(O)OP(=O)(O)OC[C@H]1O[C@@H](n2ccc(N)nc2=O)[C@H](O)[C@@H]1O)OCC(F)(F)F (stereo partly shown) [Bsp. 2, Cytidin-5'-diphosphat-1-0-hexadecyl-2-0-(2,2,2-trifluorethyl)glycerol] | 9.5 | 30 | 86 | 100 |
| CCCCCCCCCCCCCCCCOP(=O)(O)OP(=O)(O)OC[C@H]1O[C@@H](n2ccc(N)nc2=O)[C@H](O)[C@@H]1O [Bsp. 1, Cytidin-5'-diphosphat-hexadekanol] | 12 | 19 | 46 | 31 |
| CCCCCCCCCCCCCCCCOCC(CCl)OP(=O)(O)OP(=O)(O)OC[C@H]1O[C@@H](n2ccc(N)nc2=O)[C@H](O)[C@@H]1O (stereo partly shown) [Bsp. 3, Cytidin-5'-diphosphat-3-chlor-3-desoxy-1-0-hexadecylglycerol] | 12 | 17 | 29 | 69 |
| CCCCCCCCCCCCCCCCOCC(Cl)COP(=O)(O)OP(=O)(O)OC[C@H]1O[C@@H](n2ccc(N)nc2=O)[C@H](O)[C@@H]1O (stereo partly shown) [Bsp. 4, Cytidin-5'-diphosphat-2-chlor-2-desoxy-1-0-hexadecylglycerol] | 18 | 38 | 67 | 94 |

Reference: patent publication EP0432183B1, “NEW CITYDIN-5'-DIPHOSPHATE ALKANOLS AND GLYCEROLS, A PROCESS FOR PREPARING THEM AND THEIR USE” (Clarion Pharmaceuticals, Inc., priority 1988, dated 1990)
